# Assay results taken from patent US20120309798A1, “Tumour Treatment Agents and Method” (Vivolux AB, priority 2009, published 2012).
# Where two headings read alike, the source gives them in different places.
# Tests used:
# [1] = system: ALL (Acute Lymphocytic Leukemia) patient tumor cells; assay: Fluorometric Microculture Cytotoxicity Assay (FMCA), patient tumor samples, ALL; type: cell-based; settings: Homo sapiens, range over n=21 samples
# Source text: (§1) Cell culture. Patient tumor samples (98) and preparations (4) of normal peripheral blood mononuclear cells (PBMC), detailed in Table 1, were used to determine the activity of VLX50 and, for comparison, six other cytotoxic drugs chosen to represent different mechanistic classes.
# (§2) The tumor samples were obtained by bone marrow/peripheral blood sampling, routine surgery or diagnostic biopsy. Leukemic cells and PBMCs were isolated by 1.077 g ml-1 Ficoll-Paque centrifugation (Larsson et al., 1992). Tumor tissue from solid tumor samples was minced into small pieces and tumor cells were isolated by collagenase dispersion followed by Percoll density gradient centrifugation (Csoka et al., 1994). […] Cell viability was determined by trypan blue exclusion test and the proportion of tumor cells in the preparation was judged by inspection of May-Grunvald-Giemsa stained cytospin slides (FIG. 1a). […]
# (§3) Fluorometric Microculture Cytotoxicity Assay. The Fluorometric Microculture Cytotoxicity Assay, FMCA, described in detail previously (Lindhagen et al., 2008), is based on measurement of fluorescence generated from hydrolysis of fluorescein diacetate (FDA) to fluorescein by cells with intact plasma membranes. […] Quality criteria for a successful assay included a mean coefficient of variation of less than 30% in the control and a fluorescence signal in control wells of more than 5 times the blank. […]
# [2] = system: Breast cancer patient tumor cells; assay: FMCA, patient tumor samples, breast cancer; type: cell-based; settings: Homo sapiens
# Source text: as §1, §2, §3
# [3] = system: Lung cancer patient tumor cells; assay: FMCA, patient tumor samples, lung cancer; type: cell-based; settings: Homo sapiens
# Source text: as §1, §2, §3
# [4] = system: Renal cancer patient tumor cells; assay: FMCA, patient tumor samples, renal cancer; type: cell-based; settings: Homo sapiens
# Source text: as §1, §2, §3
# [5] = system: Assorted tumors: one appendix cancer and one pseudomyxomo peritonei; assay: FMCA, patient tumor samples, assorted tumors; type: cell-based; settings: Homo sapiens
# Source text: as §1, §2, §3
# [6] = system: normal peripheral blood mononuclear cells (PBMC); assay: FMCA, normal peripheral blood mononuclear cells; type: cell-based; settings: Homo sapiens
# Source text: as §1, §2, §3
# [7] = system: solid and hematological patient tumor samples; assay: Relative effect on solid and hematological tumor samples (S/H ratio), FMCA; type: cell-based, human; settings: n=98 patient samples; FIG. 2b
# Source text: as §1, §2, §3
# [8] = system: cells from CLL and normal PBMC; assay: Tumor cell specificity: drug effect in CLL cells versus normal PBMC, FMCA; type: cell-based, human; settings: PBMC n=4, CLL n=9; FIG. 2c
# Source text: as §1
# The tumor samples were obtained by bone marrow/peripheral blood sampling, routine surgery or diagnostic biopsy. Leukemic cells and PBMCs were isolated by 1.077 g ml-1 Ficoll-Paque centrifugation (Larsson et al., 1992). Tumor tissue from solid tumor samples was minced into small pieces and tumor cells were isolated by collagenase dispersion followed by Percoll density gradient centrifugation (Csoka et al., 1994). The sampling of primary tumor cells was approved by the local ethics committee at Uppsala University Hospital. Cell viability was determined by trypan blue exclusion test and the proportion of tumor cells in the preparation was judged by inspection of May-Grunvald-Giemsa stained cytospin slides (FIG. 1a). All samples used in this study contained more than 70% tumor cells.
# Fluorometric Microculture Cytotoxicity Assay. The Fluorometric Microculture Cytotoxicity Assay, FMCA, described in detail previously (Lindhagen et al., 2008), is based on measurement of fluorescence generated from hydrolysis of fluorescein diacetate (FDA) to fluorescein by cells with intact plasma membranes. Cells were seeded in the drug-prepared 384-well plates using the pipetting robot Precision 2000 (Bio-Tek Instruments Inc., Winooski, Vt.). The number of cells per well were 2500-5000. Two columns without drugs served as controls and one column with medium only served as blank. The plates were incubated for 72 h and then transferred to an integrated HTS SAIGAN Core System consisting of an ORCA robot (Beckman Coulter) with CO2 incubator (Cytomat 2C, Kendro, Sollentuna, Sweden), dispensor module (Multidrop 384, Titertek, Huntsville, Ala.), washer module (ELx 405, Bio-Tek Instruments Inc), delidding station, plate hotels, barcode reader (Beckman Coulter), liquid handler (Biomek 2000, Beckman Coulter) and a multipurpose reader (FLUOstar Optima, BMG Labtech GmbH, Offenburg, Germany) for automated FMCA. Quality criteria for a successful assay included a mean coefficient of variation of less than 30% in the control and a fluorescence signal in control wells of more than 5 times the blank.
# Dose-response data were analyzed using calculated survival index values and the software program GraphPadPrism4 (GraphPad Software Inc., San Diego, Calif., USA). Data was processed using non-linear regression to a standard sigmoidal dose-response model to obtain IC50-values (inhibitory concentration 50%).
# In FIG. 2a the response rates for VLX50 at 4 μM for the patient samples are listed according to diagnoses. […] Lung cancer, AML and CML had intermediate response rates. The relative effect of VLX50 and six standard cytotoxic drugs, in solid and hematological tumor samples, expressed as the S/H ratio, is shown in FIG. 2b. […] The results for the standard drugs are consistent with their main clinical use.
# [9] = Weight gain and hematological parameters of treated mice; type: in vivo, NMRI male mice; settings: single dose 760 μg/mouse s.c.
# Experimental: In vivo studies. Cells from two ovarian carcinoma patients and the cell line CEM were cultured inside semi-permeable polyvinylidene fluoride fibers and assessed by the hollow fiber assay (Friberg et al., 2005; Jonsson et al., 2000). The fibers were implanted subcutaneously into NMRI male mice (Scanbur, Sollentuna Sweden), which were treated with a single dose (0.76 mg/mouse) of VLX50 subcutaneously, or vehicle only (n=animals/group). Fibers were retrieved after 6 days and cell density evaluated (FIG. 3a) using the MTT (3-[4,5-dimethylthiazol-2-yl]-2,5-diphenyltetrazolium bromide)-assay (Alley et al. 1988). The method is based on the conversion of MTT to blue formazan crystals by living cells. The formazan was extracted by DMSO as previously described (Jonsson et al. 2000), and optical density (OD) read at 570 nm. Cell density for each fiber on retrieval day was expressed as net growth, defined as (OD retrieval day—OD implantation day)/OD implantation day, i.e. the percent change in cell density in the fibers during the 6 days of in vivo experiment. The animals were observed regarding behavior and weight gain throughout the experiment. Blood samples (200 μl) were obtained through the orbital plexus after anesthetization with isofluran just before euthanasia, and analyzed for hematological parameters. Four animals were caged per cage and fed a commercial diet (Lactamin AB, Sweden), water being given ad libitum.
# In vivo activity in PHTC cultures of ovarian carcinoma. Activity in vivo was determined in hollow fiber cultures of PHTC from ovarian carcinoma patients subcutaneously implanted in mice (FIG. 3a; n=8 each in test and control groups). […] There was no difference in WBC, RBC, and hemoglobin values (FIG. 3c).
# [10] = n=7, 72 h FMCA, read-out: Median IC50
# [11] = range over n=7 samples, read-out: IC50 Range
compound,measurement,setting,value
"COCCCNC(=S)N/N=C\c1ccccn1 [VLX50, N1-(3-methoxypropyl)-2-(pyridylmethylidene)-hydrazine-1-carbothioamide]",IC50,[1],0.055 to 11.2 µM
same,IC50,[2]; [10],8.23 µM
same,IC50,[2]; [11],0.87 to 40 µM
same,IC50,"[3]; n=6, 72 h FMCA, read-out: Median IC50",13.6 µM
same,IC50,"[3]; range over n=6 samples, read-out: IC50 Range",0.51 to 40 µM
same,IC50,[4]; [10],> 40 µM
same,IC50,[4]; [11],23.8 to 40 µM
same,IC50,"[5]; n=2, 72 h FMCA, read-out: Median IC50",7.8 µM
same,IC50,"[5]; range over n=2 samples, read-out: IC50 Range",1.6 to 13.3 µM
same,IC50,"[6]; n=4, 72 h FMCA, read-out: Median IC50",8.92 µM
same,IC50,"[6]; range over n=4 samples, read-out: IC50 Range",2.88 to 13.3 µM
same,S/H ratio (ratio between total response rates for solid and hematological samples),[7],0.73
same,PBMC/CLL median IC50 ratio,[8],7.6
same,Hemoglobin values,[9],no difference
same,RBC,[9],no difference
same,WBC,[9],no difference
same,Platelet counts,[9]; P<0.05,significant decrease
same,Weight gain compared to the control group,[9]; P<0.05,small but significant reduction
